Experimental data taken from patent publication US20050209157A1, “Short bioactive peptides and methods for their use” (priority 2001, published 2005).
≈ marks a conversion by molar mass, not a printed value. Like-named read-outs stand apart in the source and are kept apart here. No end group written: not given here.

What was measured:
[1] = tested on: Escherichia coli 25922; experiment: microbe, parasite or virus in culture
Excerpt: Synergy between peptide Shiva-10 (SEQ ID NO:4) and various antimicrobial agents was investigated against Escherichia coli 25922.
Synergy between tetracycline and various peptides was investigated against Escherichia coli 25922 MBC. […] When combined with the peptides, the concentration of tetracycline was held at 1.5 ppm.

[2] = tested on: Staph. aureus 29213; experiment: microbe, parasite or virus in culture; conditions: for MBC: Staphylococcus aureus, 29213, read-out: MBC, Without peptide; for MBC, With 5 μg/mL peptide: with 5 μg/mL peptide Shiva-10
Excerpt: This experiment determined the peptide MBC in the absence of the antimicrobial agent, or in the presence of the indicated concentration of antimicrobial agent

[3] = tested on: S. epidermidis C621; type: cell-based, Staphylococcus epidermidis; conditions: mean of three; 16 to 20 hours at 35° C.
[4] = tested on: H1299; experiment: Anti-cancer assay, MTT, LD50; type: cell-based; conditions: 24 hours with peptide, lung large cell carcinoma
Excerpt: (§1) Numbers are LD50 values (μg/mL).

[5] = tested on: HeLaS3; experiment: Anti-cancer assay, MTT, LD50; type: cell-based; conditions: 24 hours with peptide, cervical carcinoma
Excerpt: as §1

[6] = tested on: PC3; experiment: Anti-cancer assay, MTT, LD50; type: cell-based; conditions: 24 hours with peptide, prostate adenocarcinoma
Excerpt: as §1

[7] = tested on: MCF7; experiment: Anti-cancer assay, MTT, LD50; type: cell-based; conditions: MCF7 breast adenocarcinoma line, MTT, 24 hours with peptide
Excerpt: as §1

[8] = tested on: SW480; experiment: Anti-cancer assay, MTT, LD50; type: cell-based; conditions: SW480 colon adenocarcinoma line, 24 hours with peptide
Excerpt: as §1

[9] = tested on: BMKC; experiment: Anti-cancer assay, MTT, LD50; type: cell-based; conditions: BMKC cloned melanoma line, 24 hours with peptide
Excerpt: as §1

[10] = tested on: P. acne ATCC 6919; experiment: Antimicrobial assays II, NCCLS broth microdilution MIC; type: cell-based, Propionibacterium acnes; conditions: mean of three, in µg/mL
[11] = tested on: S. pyogenes M76; experiment: as above; type: cell-based, Streptococcus pyogenes; conditions: mean of three; 16 to 20 hours at 35° C.
[12] = tested on: yeast (Saccharomyces cerevisiae); experiment: Antimicrobial assay I, yeast assay in RPMI 1640; type: cell-based; conditions: RPMI 1640 media
[13] = tested on: P. aeruginosa H774; type: cell-based, Pseudomonas aeruginosa; conditions: P. aeruginosa H744; nalidixic acid + peptide at ¼ MIC; 0.5 or less = synergy
Outline: (§2)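 Synergy against efflux-mutant strains: two-fold dilutions of nalidixic acid or chloramphenicol tested with peptide held at ¼ of its MIC.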

[14] = tested on: P. aeruginosa; type: cell-based, Pseudomonas aeruginosa; conditions: P. aeruginosa H744; MIC of nalidixic acid with peptide at ¼ MIC
Outline: as §2

[15] = tested on: P. aeruginosa H374; type: cell-based, Pseudomonas aeruginosa; conditions: for FIC Index: 0.5 or less = synergy
Outline: as §2

[16] = tested on: S. pneumoniae C718; experiment: Antimicrobial assays II, NCCLS broth microdilution MIC; type: cell-based, Streptococcus pneumoniae; conditions: mean of three
[17] = tested on: Staphylococcus aureus ATCC 6538; experiment: Antimicrobial assay I, MIC by OD measurement; type: cell-based; conditions: 37° C. for 24 hours, absorbance 620 nm
[18] = tested on: Pseudomonas aeruginosa ATCC 9027; experiment: Antimicrobial assay I, MIC by OD measurement; type: cell-based; conditions: 37° C. for 24 hours, absorbance 620 nm
[19] = in vitro; type: cell-based, human; conditions: human, human red blood cells
[20] = tested on: S. aureus (MRSA); type: cell-based, Staphylococcus aureus; conditions: mean of three; 16 to 20 hours at 35° C.
[21] = tested on: S. pyogenes ATCC19615; experiment: Antimicrobial assays II, NCCLS broth microdilution MIC; type: cell-based, Streptococcus pyogenes; conditions: mean of three, in µg/mL
[22] = tested on: WI38; conditions: MTT, 24 hours with peptide; normal fibroblast line
[23] = in vitro; conditions: human, WI38 normal lung fibroblast cells
[24] = tested on: human leukocyte (WBC) cells; experiment: Stimulation and proliferation of leukocytes, Alamar Blue; type: cell-based; conditions: 48 hours
[25] = tested on: Escherichia coli ATCC 25922; experiment: Antimicrobial assay I, modified protocol (tryptic soy broth), MBC; conditions: minimum bactericidal concentration, Table 4
Description: (§3) The preparation of all media, stock solutions, and dilutions took place in a laminar flow hood to prevent contamination. Bacterial cells were freshly grown on antibiotic medium 2 agar slants (pH 7.0 at 25° C.). Bacteria were suspended and diluted in antibiotic medium 3 to about 10^4 cfu/ml and used as the inoculum. Sample solutions (100 μl/well) were added to plates according to the plate layout. Inoculum (100 μl/well) was added to achieve a final concentration of 5×10^3 cfu/ml. Negative controls received 100 μl saline and 100 μl growth medium. Positive controls received 100 μl saline and 100 μl inoculum. Bacterial plates were incubated at 37° C. for 24 hours.
(§4) However, the data for Table 4 were obtained with a modified protocol wherein the medium was tryptic soy broth, inocolum strength was approximately 10^4 CFU per ml, and values determined were minimum bactericidal concentrations (MBC) or minimum fungicidal concentrations (MFC).
(§5) MBC or MFC values are in μg/mL. E. coli is Escherichia coli ATCC accession number 25922; P. aerug is Pseudomonas aeruginosa ATCC accession number 27853, S. aur. is Stapholococcus aureus ATCC accession number 25923; Candida is Candida albicans ATCC accession number 10231.

[26] = tested on: human fibroblast cells (WI38); experiment: Stimulation and proliferation of fibroblasts, CyQuant; type: cell-based; conditions: for Peptide treated cell activity Stimulation relative to control: 48 hrs, 2.0% FBS
Description: Procedure: Different cell lines were maintained with different medium according to the ATCC. […] The cell suspension was centrifuged for 10 minutes at 100 rpm. The supernatant was removed and discarded without disturbing the cell pellet. A concentrated cell suspension was prepared in 1.0 ml of medium to obtain a density of about 10^5 to 10^6 cells/ml. The actual cell density was determined by counting the cells using a hemocytometer with the Trypan Blue method. Cell numbers were adjusted to obtain equal number of cells per 200 μl volume. Cells were plated with 0% FBS, 2% FBS, 3% FBS and 5% FBS. The plates were incubated at 37° C. for a time sufficient to allow the cells to attach. For long-term proliferation studies, 100 μl of medium was removed from each well each day and replaced with fresh medium.
At the desired time, the medium was removed from the adherent cells in a 96 well plate. These cells were already treated with test agents. The cells were frozen in the plate at −70° C. for 30 minutes. The cells were thawed at room temperature. CyQuant GR dry/Cell Lysis Buffer (200 μl) was added to each sample cell. The cells were incubated at room temperature for 15 minutes while protected from the light. Fluorescence was measured using fmax at 485-538 nm.
The above CyQuant protocol was used to examine possible peptide stimulation and/or proliferation of fibroblasts. […] This is shown by the addition of Fetal Bovine Serum (FBS) to the medium. […] Control cells and peptide treated cells are with medium and FBS as indicated.

[27] = tested on: human red blood cells (RBC); experiment: in vitro; type: cell-based; conditions: human red blood cells
[28] = tested on: Candida albicans ATCC 10231; experiment: Antimicrobial assay I, modified protocol (tryptic soy broth), MFC; conditions: minimum fungicidal concentration, Table 4
[29] = tested on: Stapholococcus aureus ATCC 25923; experiment: Antimicrobial assay I, modified protocol (tryptic soy broth), MBC; conditions: minimum bactericidal concentration, Table 4
[30] = tested on: cancer cell lines; experiment: Anti-cancer assays, MTT, summary over the cancer cell lines; type: cell-based; conditions: X = preferred
[31] = tested on: Pseudomonas aeruginosa ATCC 27853; experiment: Antimicrobial assay I, modified protocol (tryptic soy broth), MBC; conditions: minimum bactericidal concentration, Table 4
Description: as §3, §4, §5

[32] = tested on: fungal; experiment: Presently preferred antifungal peptides, selected from the MIC/MBC data; type: cell-based; conditions: X = preferred
Excerpt: The peptide's “length” is the number of amino acid residues in the sequence.

[33] = Escherichia coli, 25922, read-out: MBC, Without peptide
[34] = pH 7, hemolytic assay, concentration at 50% hemolysis, 1 hour at 37° C., read-out: LD50

## CC1(C)S[C@@H]2[C@H](NC(=O)[C@H](C(=O)O)c3ccsc3)C(=O)N2[C@H]1C(=O)O [Ticarcillin]
[1]; [33]
  MBC: 100 µg/mL
[1]; with 15 μg/mL peptide Shiva-10
  MBC, With peptide: 50 µg/mL
[2]
  MBC: 25 µg/mL (≈ 65 µM)
  MBC, With 5 μg/mL peptide: 15 µg/mL (≈ 39 µM)

## CC(C)C[C@H](NC(=O)[C@H](C)NC(=O)[C@H](CC(C)C)NC(=O)[C@H](CCCCN)NC(=O)[C@H](C)NC(=O)[C@H](CC(C)C)NC(=O)[C@H](CCCCN)NC(=O)[C@H](CCCCN)NC(=O)[C@H](C)NC(=O)[C@H](CC(C)C)NC(=O)[C@H](CCCCN)NC(=O)[C@H](C)NC(=O)[C@H](CC(C)C)NC(=O)[C@H](CCCCN)NC(=O)[C@H](CCCCN)NC(=O)[C@H](C)NC(=O)[C@@H](N)Cc1ccccc1)C(N)=O [P35]
[3]
  S. epidermidis C621 MIC: 4 µg/mL
[4]
  H1299 LD50: 16 µg/mL
[5]
  HeLaS3 LD50: 27 µg/mL
[6]
  PC3 LD50: 5 µg/mL
[7]
  LD50 MCF7: 9 µg/mL
[8]
  LD50 SW480: 14 µg/mL
[9]
  LD50 BMKC: 7 µg/mL
[10]
  P. acne MIC: 4
[11]
  S. pyogenes M76 MIC: 4 µg/mL
[12]
  yeast (MIC or MFC): 25 µg/mL
[13]
  FIC Index: 1.25
[14]
  MIC Nal-comb.: 624 µg/mL
[15]; MIC of chloramphenicol with peptide at ¼ MIC
  MIC Cm-comb.: 16 µg/mL
[15]; MIC of nalidixic acid with peptide at ¼ MIC
  MIC Nal-comb.: 10,000 μg/ml
[15]; chloramphenicol + peptide at ¼ MIC
  FIC Index: 1.25
[15]; nalidixic acid + peptide at ¼ MIC, FIC=0.25+MIC comb/MIC alone
  FIC Index: 2.25
[16]
  S. pneumoniae MIC: 4 µg/mL
[17]
  staph6538 (MIC): 5 µg/mL
[18]
  paerug9027 (MIC): 200 µg/mL
[19]; [34]
  HC50 at 1 h: 200 µg/mL
[20]
  S. aureus (MRSA) MIC: 8 µg/mL
[21]
  S. pyogenes MIC: 16
[22]
  WI38 LD50: 8 µg/mL
[23]; LD50 WI38, WI38 normal lung fibroblast line, MTT, 24 hours with peptide
  CC50 at 24 h: 8 µg/mL (≈ 4.31 µM)
[2]; in the presence of Cefoperazone ([…])
  MBC of peptide: 20 µg/mL
[2]; in the presence of Vancomycin (1 ppm)
  MBC of peptide: 32 µg/mL
[2]; peptide alone
  MBC of peptide: 50 µg/mL

## CC(C)C[C@H](NC(=O)[C@H](C)NC(=O)[C@H](CC(C)C)NC(=O)[C@H](C)NC(=O)[C@H](CC(C)C)NC(=O)[C@H](CCCCN)NC(=O)[C@H](C)NC(=O)[C@H](CC(C)C)NC(=O)[C@H](CCCCN)NC(=O)[C@H](CCCCN)NC(=O)[C@H](C)NC(=O)[C@H](CC(C)C)NC(=O)[C@H](CCCCN)NC(=O)[C@H](CCCCN)NC(=O)[C@H](CC(C)C)NC(=O)[C@H](CCCCN)NC(=O)[C@H](CCCCN)NC(=O)[C@H](C)NC(=O)[C@H](CC(C)C)NC(=O)[C@H](CCCCN)NC(=O)[C@H](CCCCN)NC(=O)[C@H](C)NC(=O)[C@@H](N)Cc1ccccc1)C(N)=O [P11, reference compound]
[19]; [34]
  HC50 at 1 h: 76 µg/mL
[1]; agent alone
  MBC, Without peptide: 50 µg/mL
[2]; agent alone
  MBC, Without peptide: 200 µg/mL (≈ 78.9 µM)

## CCN1CCN(C(=O)N[C@@H](C(=O)N[C@@H]2C(=O)N3C(C(=O)O)=C(CSc4nnnn4C)CS[C@H]23)c2ccc(O)cc2)C(=O)C1=O [Cefoperazone]
[1]; [33]
  MBC: 150 µg/mL
[1]; with 15 μg/mL peptide Shiva-10
  MBC, With peptide: 2.5 µg/mL
[2]
  MBC: 10 µg/mL (≈ 15.5 µM)
  MBC, With 5 μg/mL peptide: 2.5 µg/mL (≈ 3.87 µM)

## FALALKALKKALKKLKKALKKAL-NH2 [compound 2]
[24]; 0.1 ug/ml
  Peptide treated cell activity Percent stimulation relative to control: 117%
[24]; 1 ug/ml
  Peptide treated cell activity Percent stimulation relative to control: 118%
[24]; 10 ug/ml
  Peptide treated cell activity Percent stimulation relative to control: 119%
[24]; 100 ug/ml
  Peptide treated cell activity Percent stimulation relative to control: 121%
[24]; 500 ug/ml
  Peptide treated cell activity Percent stimulation relative to control: 119%
[25]
  MBC E. coli A.25922: 25 µg/mL
[26]; 0.1 μg/ml, 0% FBS
  percent cell viability above or below control: −27%
[26]; 0.1 μg/ml
  Peptide treated cell activity Stimulation relative to control: 125%
[26]; 0.1 μg/ml, […] FBS
  percent cell viability above or below control: 26%
[26]; 1 μg/ml, 0% FBS
  percent cell viability above or below control: −3%
[26]; 1 μg/ml
  Peptide treated cell activity Stimulation relative to control: 156%
[26]; 1 μg/ml, […] FBS
  percent cell viability above or below control: 57%
[26]; 10 μg/ml, 0% FBS
  percent cell viability above or below control: 27%
[26]; 10 μg/ml
  Peptide treated cell activity Stimulation relative to control: 122%
[26]; 10 μg/ml, […] FBS
  percent cell viability above or below control: 23%
[26]; 100 μg/ml, 0% FBS
  percent cell viability above or below control: −82%
[26]; 100 μg/ml
  Peptide treated cell activity Stimulation relative to control: 35%
[26]; 100 μg/ml, […] FBS
  percent cell viability above or below control: −66%
[19]; pH 7, Table 26, valine substitution, read-out: Hemolysis RBC LD50
  HC50 at 1 h: 12 µg/mL
[27]
  Peptide toxicity RBC LD/50: 30
[28]
  MFC Candida A.10231: >50 µg/mL
[29]
  MBC S. aur A.25923: 25 µg/mL
[30]
  Anti-cancer (preferred peptide): X (Preferred anticancer peptides can be selected as having LD50 values of less than or equal to about 25 μg/ml)
[23]; Peptide toxicity WI-38 LD/50, human fibroblast cells
  CC50 at 24 h: 66 µg/mL
[23]; WI-38 LD50, Table 26, valine substitution
  CC50 at 24 h: 66 µg/mL
[31]
  MBC P. aerug A.27853: 10 µg/mL
[32]
  Anti-fungal (preferred peptide): X (Preferred antifungal peptides can be selected as having MIC or MBC values of less than or equal to about 25 μg/ml)

## CN(C)[C@@H]1C(O)=C(C(N)=O)C(=O)[C@@]2(O)C(O)=C3C(=O)c4c(O)cccc4[C@@](C)(O)[C@H]3C[C@@H]12 [Tetracycline]
[1]; Escherichia coli, 25922, read-out: MBC of tetracycline
  MBC: 10 µg/mL
[1]; [33]
  MBC: 10 µg/mL
[1]; with 5 μg/mL peptide Shiva-10
  MBC, With peptide: 2.5 µg/mL
[2]
  MBC: 10 µg/mL (≈ 22.5 µM)
  MBC, With 5 μg/mL peptide: 1 µg/mL (≈ 2.25 µM)
